US20210230313A1, “SULFUR-CONTAINING GLYCANS AND POLYSACCHARIDES AND METHODS OF CHEMOENZYMATIC SYNTHESIS THEREOF” (priority 2018, published 2021)

Experiments:
[1] = molecular target: T1, bacterial heparin lyase III (Pedobacter heparinus, UniProt Q59289); test: Heparin lyase III challenge of HEP polymers, PAGE analysis; type: biochemical; settings: 50 mM ammonium acetate, pH 7.0, 20 h at 30° C., loss of signal on PAGE (FIG. 8)
T1 sequence (Q59289 25-659): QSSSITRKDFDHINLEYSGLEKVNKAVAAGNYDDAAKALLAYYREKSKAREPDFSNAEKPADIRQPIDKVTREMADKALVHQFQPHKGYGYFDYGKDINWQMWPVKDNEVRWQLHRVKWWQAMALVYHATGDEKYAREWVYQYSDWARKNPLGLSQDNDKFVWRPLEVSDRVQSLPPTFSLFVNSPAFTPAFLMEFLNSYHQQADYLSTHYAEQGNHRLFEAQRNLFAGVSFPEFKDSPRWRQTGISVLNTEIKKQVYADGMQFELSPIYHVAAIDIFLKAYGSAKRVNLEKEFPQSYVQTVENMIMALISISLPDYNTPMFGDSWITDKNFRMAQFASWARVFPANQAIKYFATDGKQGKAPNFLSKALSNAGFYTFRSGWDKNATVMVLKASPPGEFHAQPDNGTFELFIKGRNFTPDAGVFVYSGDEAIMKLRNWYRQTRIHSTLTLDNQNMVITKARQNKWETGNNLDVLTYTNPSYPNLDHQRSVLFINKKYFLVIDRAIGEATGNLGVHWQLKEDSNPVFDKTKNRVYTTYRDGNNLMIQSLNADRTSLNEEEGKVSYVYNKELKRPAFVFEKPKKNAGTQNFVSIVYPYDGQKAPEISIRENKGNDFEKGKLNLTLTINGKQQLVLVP
Experimental: Polymerization reactions and PAGE analysis. HEP trisaccharide (30 ng/ul) was incubated with 10 mM […] and either 10 mM 4-thio- or authentic UDP-GlcNAc, with PmHS-G (0.5 mg/ml), 1 mM MnCl2, and 50 mM Hepes, pH 7.2, for 20 h at 30° C. The reactions were then diluted in water and split into two aliquots, (i) a untreated control (−) and (ii) a heparin lyase III treated in 50 mM ammonium acetate, pH 7.0, for 20 h at 30° C. (+). The samples were then analyzed on a 6% 1×TBE PAGE (250 V, 15 min) and stained with 0.05% Alcian Blue followed by silver staining (BioRad Silver Stain kit).
Polymerization reactions producing longer HEP chains with either native (4-OH) or analog (4-SH) donors were analyzed for size on PAGE gels and stained. The gel depicts the polysaccharides made with both natural UDP-donors (native HEP) or by using the thio-GlcNAc analog and UDP-GlcA to form Hemi-A HEP.
Both polymers were challenged with bacterial heparin lyase III (+lanes). […] This finding is predicted as the enzyme digests the C—O—C glycosidic link that still exists in both types of HEP species.

PmHS-D = test: Radiochemical incorporation assay, co-polymerization with UDP-[3H]GlcA, paper chromatography; type: biochemical, Pasteurella multocida; settings: GAG synthase PmHS-D 1 mg/ml; test UDP-sugar 0.5 mM; UDP-[3H]GlcA 0.08 mM; 30° C., 5.5 hours
Experimental: (§1) For polymerization tests, for example, the various oligosaccharide acceptors were incubated with two types of UDP-sugars at 2 mM as noted under the same conditions as the single sugar extensions above. Radioactive UDP-sugars (e.g., UDP-[^3H]GlcA) were used to monitor co-polymerization reactions with the thiosugar-donors separated by various modes of chromatography. The general reaction catalyzed by a GAG synthase in these tests is:
(§2) n UDP-4S-HexNAc+n UDP-[^3H]GlcA+acceptor-->2n UDP+[4S-HexNAc+UDP-[^3H]GlcA]n-acceptor
(§3) where HexNAc is GlcNAc, GalNAc, or another sugar or sugar derivative. Reactions used radioactive UDP-GlcA (0.08 mM final; 0.1 microCi ^3H) and the authentic UDP-sugars (a positive control) or their thio-analogs (0.5 mM final) with a GAG synthase (1 mg/ml) in neutral pH buffer (50 mM Hepes, pH 7.2) with divalent cation (1 mM Mn^2+) at 30° C. for 5.5 hours (note: the HA [PmHAS] and chondroitin [PmCS] synthase reactions also employed the stabilizer 1M ethylene glycol). The reactions were quenched (2% SDS detergent), and analyzed by paper chromatography. The small radioactive UDP-sugar precursors are polymerized by the synthase, resulting in larger products (stay at the origin of the paper; any unused precursor migrates down the paper); such data is shown in Table 3.
(§4) Chimeric enzymes that included differing portions of both PmHS1 (GenBank Accession #AAL84702) and PmHS2 (GenBank Accession #AAQ55109) were created and tested for their ability to synthesize polymers from the sulfur-containing UDP-4-S-GlcNAc. As shown below in Table 2, the corresponding numbers describe the original residue numbers of the source parental synthase sequence as noted.
(§5) Overall, the Chimeric B construct (PmHS-B) appears to be the best catalyst tested thus far for incorporating 4-S-GlcNAc into a heparosan-like S-linked polymer.

PmHS-B = test: as above; type: biochemical, Pasteurella multocida; settings: GAG synthase PmHS-B 1 mg/ml; test UDP-sugar 0.5 mM; UDP-[3H]GlcA 0.08 mM; 30° C., 5.5 hours; * = significant thio-sugar incorporation into polymer
Experimental: as §1, §2, §3, §4, §5

PmHS-J = test: as above; type: biochemical, Pasteurella multocida; settings: GAG synthase PmHS-J 1 mg/ml; test UDP-sugar 0.5 mM; UDP-[3H]GlcA 0.08 mM; 30° C., 5.5 hours; * = significant thio-sugar incorporation into polymer
Experimental: as §1, §2, §3, §4, §5

PmHS-G = test: as above; type: biochemical, Pasteurella multocida; settings: GAG synthase PmHS-G 1 mg/ml; test UDP-sugar 0.5 mM; UDP-[3H]GlcA 0.08 mM; 30° C., 5.5 hours; * = significant thio-sugar incorporation into polymer
Experimental: as §1, §2, §3, §4, §5

PmHS-I = test: as above; type: biochemical, Pasteurella multocida; settings: GAG synthase PmHS-I 1 mg/ml; test UDP-sugar 0.5 mM; UDP-[3H]GlcA 0.08 mM; 30° C., 5.5 hours
Experimental: as §1, §2, §3, §4, §5

PmHS-A = test: as above; type: biochemical, Pasteurella multocida; settings: GAG synthase PmHS-A 1 mg/ml; test UDP-sugar 0.5 mM; UDP-[3H]GlcA 0.08 mM; 30° C., 5.5 hours
Experimental: as §1, §2, §3, §4, §5

| Molecule | Susceptibility to digestion by bacterial heparin lyase [1] | 3H radioactivity at the origin (dpm) (PmHS-D) | 3H radioactivity at the origin (dpm) (PmHS-B) | 3H radioactivity at the origin (dpm) (PmHS-J) | 3H radioactivity at the origin (dpm) (PmHS-G) | 3H radioactivity at the origin (dpm) (PmHS-I) | 3H radioactivity at the origin (dpm) (PmHS-A) |
| --- | --- | --- | --- | --- | --- | --- | --- |
| (-4-GlcA-1-beta-S-4-GlcNAc-1-alpha-O)n [Hemi-A HEP] | sensitive to digestion | – | – | – | – | – | – |
| CC(=O)N[C@H]1[C@@H](OP(=O)(O)OP(=O)(O)OC[C@H]2O[C@@H](n3ccc(=O)[nH]c3=O)[C@H](O)[C@@H]2O)O[C@H](CO)[C@@H](S)[C@@H]1O [UDP-4S-GlcNAc, UDP-4-SH-GlcNAc] | – | 42 dpm | 800 * dpm | 480 * dpm | 510 * dpm | 42 dpm | – |
| CC(=O)N[C@H]1[C@@H](OP(=O)(O)OP(=O)(O)OC[C@H]2O[C@@H](n3ccc(=O)[nH]c3=O)[C@H](O)[C@@H]2O)O[C@H](CO)[C@@H](O)[C@@H]1O [UDP-GlcNAc, UDP-N-acetylglucosamine] | – | 4,140 dpm | 9,020 dpm | 12,200 dpm | 8,900 dpm | 3,900 dpm | 9,230 dpm |
